Experimental data as given in PubChem BioAssay (NCI).
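48-hour exposure; five concentrations; linearly interpolated endpoints. TGI denotes the concentration required for complete inhibition of growth.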

Tested on: RXF-631 renal
Test: NCI-60 cell line screen, 48 h

For CC(C)CC(N)C(=O)OCN1C(=O)C2C3C=CC(C2C1=O)C1C2C(=O)N(COC(=O)C(N)CC(C)C)C(=O)C2C31 (stereo unspecified), the TGI was over 100 µM.
